Data published in patent US20240358693A1, “METHODS OF TREATING PAIN” (Aisa Pharma, Inc., priority 2023, published 2024).

Test system: participants with SSc-RP
Experiment: Average duration of weekly RP attacks (minutes)
Format: in vivo, human
From the text: The absolute change in average duration of weekly RP attacks from baseline to the end of each dosing period was and will be a secondary outcome variable. The sponsor-developed participant-informed diary was and will be used to record data. Average duration of weekly RP attacks is defined as the total duration of RP attacks divided by total number of RP attacks within the last 7 days of each dosing period. Total duration of RP attacks during the last 7 days of screening period divided by the total number of RP attacks will be used as baseline for the analysis of all periods. The variable will be calculated similar to frequency data as before.

[1] = Pooled Cilnidipine 10 mg and Cilnidipine 10 mg + Tadalafil 5 mg, Excluding Outliers, by Baseline RCS, subgroup 2, ITT Population - Part A
[2] = Pooled Cilnidipine 10 mg and Cilnidipine 10 mg + Tadalafil 5 mg, ITT Part A
[3] = Pooled Cilnidipine 10 mg and Cilnidipine 10 mg + Tadalafil 5 mg, by Baseline RCS, subgroup 1, ITT Population - Part A
[4] = Pooled Cilnidipine 10 mg and Cilnidipine 10 mg + Tadalafil 5 mg, by Baseline RCS, subgroup 2, ITT Population - Part A
[5] = Pooled Cilnidipine 20 mg and Cilnidipine 20 mg + Tadalafil 5 mg, n=4, Excluding Outliers, ITT Part A
[6] = Pooled Cilnidipine 20 mg and Cilnidipine 20 mg + Tadalafil 5 mg, n=4, ITT Part A
[7] = Pooled Cilnidipine 20 mg and Cilnidipine 20 mg + Tadalafil 5 mg, Baseline RCS subgroup 1 (unnamed), ITT Part A
[8] = Pooled Cilnidipine 20 mg and Cilnidipine 20 mg + Tadalafil 5 mg, Baseline RCS subgroup 2 (unnamed), ITT Part A
[9] = Pooled Cilnidipine 20 mg and Cilnidipine 20 mg + Tadalafil 5 mg, Excluding Outliers, Baseline RCS subgroup 1 (unnamed), ITT Part A
[10] = Pooled Cilnidipine 20 mg and Cilnidipine 20 mg + Tadalafil 5 mg, Excluding Outliers, Baseline RCS subgroup 2 (unnamed), ITT Part A
[11] = Pooled Cilnidipine 20 mg and Cilnidipine 20 mg + Tadalafil 5 mg, Excluding Outliers, ITT Population - Part A
[12] = Pooled Cilnidipine 20 mg and Cilnidipine 20 mg + Tadalafil 5 mg, Excluding Outliers, by Baseline RCS, subgroup 1, ITT Population - Part A

`COCCOC(=O)C1=C(C)NC(C)=C(C(=O)OC/C=C/c2ccccc2)C1c1cccc([N+](=O)[O-])c1` (stereo not shown) [Cilnidipine, cilnidipine] was tested, and the “Average Duration of Weekly RP Attacks (All Attacks) Change from Baseline, Mean” value [1] was -20.38 min, the “Average Duration of Weekly RP Attacks (All Attacks) Change from Baseline, Median” value [1] was -20.38 min and the “Average Duration of Weekly RP Attacks (All Attacks) Percent Change from Baseline, Mean” value [1] was −37.36%. The “Average Duration of Weekly RP Attacks (All Attacks) Percent Change from Baseline, Median” value [1] was −37.36%, the “Average Duration of Weekly RP Attacks (All Attacks), Mean” value (“Average Duration … (All Attacks), Mean” below) [1] was 34.17 min and the “Average Duration of Weekly RP Attacks (All Attacks), Median” value (“Average Duration … (All Attacks), Median” below) [1] was 34.17 min. For the same compound, the “Average Duration of Weekly RP Attacks (All Attacks) Change from Baseline, Mean” value [2] was -9.54 min, the “Average Duration of Weekly RP Attacks (All Attacks) Change from Baseline, Median” value [2] was -8.48 min and the “Average Duration of Weekly RP Attacks (All Attacks) Percent Change from Baseline, Mean” value [2] was −19.10%. The “Average Duration of Weekly RP Attacks (All Attacks) Percent Change from Baseline, Median” value [2] was −21.20%, the “Average Duration … (All Attacks), Mean” value [2] was 27.90 min and the “Average Duration … (All Attacks), Median” value [2] was 31.52 min. For the same compound, the “Average Duration of Weekly RP Attacks (All Attacks) Change from Baseline, Mean” value [3] was -4.13 min, the “Average Duration of Weekly RP Attacks (All Attacks) Change from Baseline, Median” value [3] was -4.13 min and the “Average Duration of Weekly RP Attacks (All Attacks) Percent Change from Baseline, Mean” value [3] was −9.97%. For the same compound, the “Average Duration of Weekly RP Attacks (All Attacks) Percent Change from Baseline, Median” value [3] was −9.97%, the “Average Duration … (All Attacks), Mean” value [3] was 24.76 min and the “Average Duration … (All Attacks), Median” value [3] was 24.76 min. For the same compound, the “Average Duration of Weekly RP Attacks (All Attacks) Change from Baseline, Mean” value [4] was -20.38 min, the “Average Duration of Weekly RP Attacks (All Attacks) Change from Baseline, Median” value [4] was -20.38 min and the “Average Duration of Weekly RP Attacks (All Attacks) Percent Change from Baseline, Mean” value [4] was −37.36%. For the same compound, the “Average Duration of Weekly RP Attacks (All Attacks) Percent Change from Baseline, Median” value [4] was −37.36%, the “Average Duration … (All Attacks), Mean” value [4] was 34.17 min and the “Average Duration … (All Attacks), Median” value [4] was 34.17 min. The “Average Duration of Weekly Symptomatic RP Attacks, Change from Baseline, Mean” value [5] was -7.51 min, the “Average Duration of Weekly Symptomatic RP Attacks, Change from Baseline, Median” value [5] was -3.55 min and the “Average Duration of Weekly Symptomatic RP Attacks, Mean” value [5] was 27.98 min. For the same compound, the “Average Duration of Weekly Symptomatic RP Attacks, Median” value [5] was 22.96 min, the “Average Duration of Weekly Symptomatic RP Attacks, Percent Change from Baseline, Mean” value [5] was −16.40% and the “Average Duration of Weekly Symptomatic RP Attacks, Percent Change from Baseline, Median” value [5] was −7.30%. For the same compound, the “Average Duration of Weekly Symptomatic RP Attacks, Change from Baseline, Mean” value [6] was -7.51 min, the “Average Duration of Weekly Symptomatic RP Attacks, Change from Baseline, Median” value [6] was -3.55 min and the “Average Duration of Weekly Symptomatic RP Attacks, Mean” value [6] was 27.98 min. The “Average Duration of Weekly Symptomatic RP Attacks, Median” value [6] was 22.96 min, the “Average Duration of Weekly Symptomatic RP Attacks, Percent Change from Baseline, Mean” value [6] was −16.40% and the “Average Duration of Weekly Symptomatic RP Attacks, Percent Change from Baseline, Median” value [6] was −7.30%. For the same compound, the “Average Duration of Weekly Symptomatic RP Attacks, Change from Baseline, Mean” value [7] was -1.01 min, the “Average Duration of Weekly Symptomatic RP Attacks, Change from Baseline, Median” value [7] was 3.24 min and the “Average Duration of Weekly Symptomatic RP Attacks, Mean” value [7] was 16.31 min. For the same compound, the “Average Duration of Weekly Symptomatic RP Attacks, Median” value [7] was 15.46 min, the “Average Duration of Weekly Symptomatic RP Attacks, Percent Change from Baseline, Mean” value [7] was −11.86% and the “Average Duration of Weekly Symptomatic RP Attacks, Percent Change from Baseline, Median” value [7] was 15.41%. The “Average Duration of Weekly Symptomatic RP Attacks, Change from Baseline, Mean” value [8] was -27.00 min, the “Average Duration of Weekly Symptomatic RP Attacks, Change from Baseline, Median” value [8] was -27.00 min and the “Average Duration of Weekly Symptomatic RP Attacks, Mean” value [8] was 63.00 min. For the same compound, the “Average Duration of Weekly Symptomatic RP Attacks, Median” value [8] was 63.00 min, the “Average Duration of Weekly Symptomatic RP Attacks, Percent Change from Baseline, Mean” value [8] was −30.00% and the “Average Duration of Weekly Symptomatic RP Attacks, Percent Change from Baseline, Median” value [8] was −30.00%. For the same compound, the “Average Duration of Weekly Symptomatic RP Attacks, Change from Baseline, Mean” value [9] was -1.01 min, the “Average Duration of Weekly Symptomatic RP Attacks, Change from Baseline, Median” value [9] was 3.24 min and the “Average Duration of Weekly Symptomatic RP Attacks, Mean” value [9] was 16.31 min. The “Average Duration of Weekly Symptomatic RP Attacks, Median” value [9] was 15.46 min, the “Average Duration of Weekly Symptomatic RP Attacks, Percent Change from Baseline, Mean” value [9] was −11.86% and the “Average Duration of Weekly Symptomatic RP Attacks, Percent Change from Baseline, Median” value [9] was 15.41%. The “Average Duration of Weekly Symptomatic RP Attacks, Change from Baseline, Mean” value [10] was -27.00 min, the “Average Duration of Weekly Symptomatic RP Attacks, Change from Baseline, Median” value [10] was -27.00 min and the “Average Duration of Weekly Symptomatic RP Attacks, Mean” value [10] was 63.00 min. For the same compound, the “Average Duration of Weekly Symptomatic RP Attacks, Median” value [10] was 63.00 min, the “Average Duration of Weekly Symptomatic RP Attacks, Percent Change from Baseline, Mean” value [10] was −30.00% and the “Average Duration of Weekly Symptomatic RP Attacks, Percent Change from Baseline, Median” value [10] was −30.00%. The “Average Duration of Weekly RP Attacks (All Attacks) Change from Baseline, Mean” value [11] was -4.77 min, the “Average Duration of Weekly RP Attacks (All Attacks) Change from Baseline, Median” value [11] was -2.73 min and the “Average Duration of Weekly RP Attacks (All Attacks) Percent Change from Baseline, Mean” value [11] was −13.86%. The “Average Duration of Weekly RP Attacks (All Attacks) Percent Change from Baseline, Median” value [11] was −2.74%, the “Average Duration … (All Attacks), Mean” value [11] was 27.61 min and the “Average Duration … (All Attacks), Median” value [11] was 22.36 min. The “Average Duration of Weekly RP Attacks (All Attacks) Change from Baseline, Mean” value [12] was 0.00 min, the “Average Duration of Weekly RP Attacks (All Attacks) Change from Baseline, Median” value [12] was 2.16 min and the “Average Duration of Weekly RP Attacks (All Attacks) Percent Change from Baseline, Mean” value [12] was −10.70%. The “Average Duration of Weekly RP Attacks (All Attacks) Percent Change from Baseline, Median” value [12] was 17.86%, the “Average Duration … (All Attacks), Mean” value [12] was 15.91 min and the “Average Duration … (All Attacks), Median” value [12] was 14.27 min. The “Average Duration of Weekly RP Attacks (All Attacks) Change from Baseline, Mean” value (Pooled Cilnidipine 20 mg and Cilnidipine 20 mg + Tadalafil 5 mg, Excluding Outliers, by Baseline RCS, subgroup 2, ITT Population - Part A) was -19.09 min.
